Source: ChEMBL document CHEMBL1201862, “PubChem BioAssay data set” (2004)
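A five-concentration, 48-hour dose response in 96-well plates underlies each endpoint, interpolated linearly between surrounding concentrations. At the GI50, growth is halved.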 Active and inactive are the calls of the source. Cut-off read from the data, not from the text of the source: active = GI50 up to about 1.1 µM and inactive = higher.

Key:
Experiment in all cases: NCI anticancer screen, dose series, 48 h
[1] = system: ACHN
[2] = system: COLO 205
[3] = system: EKVX
[4] = system: HCC 2998
[5] = system: HCT-15
[6] = system: HL-60
[7] = system: HOP-62
[8] = system: HOP-92
[9] = system: KM12
[10] = system: LOX IMVI
[11] = system: NCI-H23
[12] = system: OVCAR-3
[13] = system: OVCAR-5
[14] = system: OVCAR-8
[15] = system: SF-268
[16] = system: SF-539
[17] = system: SK-MEL-2
[18] = system: SK-OV-3
[19] = system: U-251
[20] = system: SW-620

Row | Structure (SMILES) | GI50 [1] | GI50 [2] | GI50 [3] | GI50 [4] | GI50 [5] [µM] | GI50 [6] | GI50 [7] | GI50 [8] | GI50 [9] | GI50 [10] | GI50 [11] | GI50 [12] | GI50 [13] | GI50 [14] | GI50 [15] | GI50 [16] | GI50 [17] | GI50 [18] | GI50 [19] | GI50 [20]
1 | COc1ccc(C2=NN(C(=O)c3ccc(Cl)cc3)C(O)(c3cc(F)c(Cl)cc3Cl)C2)cc1 (stereo not drawn) | > 100 µM (inactive) | 93.5 µM (inactive) | 6.04 µM (inactive) | 43.5 µM (inactive) | 28.1 | 51.5 µM (inactive) | > 100 µM (inactive) | > 100 µM (inactive) | 24.5 µM (inactive) | 77.8 µM (inactive) | 37.6 µM (inactive) | > 100 µM (inactive) | > 100 µM (inactive) | > 100 µM (inactive) | > 100 µM (inactive) | > 100 µM (inactive) | 21.7 µM (inactive) | > 100 µM (inactive) | > 100 µM (inactive) | 
2 | COc1ccc(C(=C2C=CC=C2)c2ccc(OC)cc2)cc1 | 36.7 µM (inactive) | 23.7 µM (inactive) | 41 µM (inactive) | 19.3 µM (inactive) | 25.5 | 36.4 µM (inactive) | 39.9 µM (inactive) | 27.8 µM (inactive) | 45.9 µM (inactive) | 17.2 µM (inactive) | 34.2 µM (inactive) | 47.1 µM (inactive) | 32.3 µM (inactive) | 44.5 µM (inactive) | 55.7 µM (inactive) | 10.8 µM (inactive) | 24.8 µM (inactive) | 18.2 µM (inactive) | 27.7 µM (inactive) | 32.6 µM (inactive)
3 | C#CCNC(=O)CCC(N)C(=O)O (stereo not drawn) |  | > 100 µM (inactive) | > 100 µM (inactive) | > 100 µM (inactive) | > 100 | > 100 µM (inactive) | > 100 µM (inactive) | > 100 µM (inactive) | > 100 µM (inactive) | > 100 µM (inactive) | > 100 µM (inactive) | > 100 µM (inactive) | > 100 µM (inactive) | > 100 µM (inactive) | > 100 µM (inactive) | > 100 µM (inactive) | > 100 µM (inactive) | > 100 µM (inactive) | > 100 µM (inactive) | > 100 µM (inactive)
4 | CCOC(=O)CN(Cn1cncn1)Cn1cncn1 | 36.6 µM (inactive) | 36.9 µM (inactive) | 43.8 µM (inactive) | 33.2 µM (inactive) | 22 | 35.7 µM (inactive) | > 100 µM (inactive) | > 100 µM (inactive) | 20.2 µM (inactive) | 21 µM (inactive) |  | 19.6 µM (inactive) | > 100 µM (inactive) | 24.7 µM (inactive) |  |  | 38.2 µM (inactive) | > 100 µM (inactive) | 17.9 µM (inactive) | 24.1 µM (inactive)
5 | CC[N+]1(C)CCC(O)(c2ccccc2)C(C(=O)c2ccccc2)C1 (stereo not drawn) | 10.1 µM (inactive) | 9.38 µM (inactive) | 21.1 µM (inactive) | 34 µM (inactive) | 9.73 | 4.27 µM (inactive) | 22 µM (inactive) | 8.3 µM (inactive) | 19.2 µM (inactive) | 15.4 µM (inactive) | 20.8 µM (inactive) | 19.3 µM (inactive) | 17.9 µM (inactive) | 25.8 µM (inactive) | 23.6 µM (inactive) | 16.7 µM (inactive) | 18.7 µM (inactive) | 17.3 µM (inactive) | 20.6 µM (inactive) | 2.12 µM (inactive)
6 | CCOC(=O)C1(C(C)=O)OC(=O)c2cnccc21 (stereo not drawn) | > 100 µM (inactive) | > 100 µM (inactive) | > 100 µM (inactive) | > 100 µM (inactive) | > 100 | > 100 µM (inactive) |  | > 100 µM (inactive) | > 100 µM (inactive) | > 100 µM (inactive) | > 100 µM (inactive) | > 100 µM (inactive) | > 100 µM (inactive) | > 100 µM (inactive) | > 100 µM (inactive) | > 100 µM (inactive) | > 100 µM (inactive) | > 100 µM (inactive) | > 100 µM (inactive) | > 100 µM (inactive)
7 | Oc1[nH]c(Nc2cccc(Br)c2)nc2ncnc1-2 | > 100 µM (inactive) | > 100 µM (inactive) | > 100 µM (inactive) | > 100 µM (inactive) | > 100 | 11.6 µM (inactive) |  | 52 µM (inactive) | > 100 µM (inactive) | > 100 µM (inactive) | > 100 µM (inactive) | 89.5 µM (inactive) | > 100 µM (inactive) | > 100 µM (inactive) | 56.4 µM (inactive) |  | 23.6 µM (inactive) | > 100 µM (inactive) |  | > 100 µM (inactive)
8 | COC1=C(C)C(=O)C2=C(C1=O)[C@@H]1[C@@H]3Cc4c(OC(=O)CO)c(C)c(OC)c(O)c4[C@H](CNC(=O)C(C)=O)N3[C@@H](C#N)[C@H](C2)N1C |  | < 0.0155 µM (active) | < 0.0405 µM (active) | 0.0472 µM (active) | < 0.01 | < 0.0135 µM (active) | 0.221 µM (active) | < 0.0119 µM (active) | 0.108 µM (active) | < 0.01 µM (active) | < 0.011 µM (active) | < 0.0153 µM (active) | 0.098 µM (active) | 0.024 µM (active) | 0.0552 µM (active) | 0.0528 µM (active) | < 0.0189 µM (active) | 0.415 µM (active) | 0.029 µM (active) | < 0.0164 µM (active)
9 | C[C@H](N)C(=O)N[C@@H]1[C@H]2C(=C(O)C[C@@H](O)[C@@H]2O)C(=O)O[C@@H]1C |  | > 100 µM (inactive) | > 100 µM (inactive) | > 100 µM (inactive) | > 100 | > 80.4 µM (inactive) | > 100 µM (inactive) | > 100 µM (inactive) | > 100 µM (inactive) | > 100 µM (inactive) | > 100 µM (inactive) | > 100 µM (inactive) | > 100 µM (inactive) | > 100 µM (inactive) | > 100 µM (inactive) | > 100 µM (inactive) | > 100 µM (inactive) | > 100 µM (inactive) | > 100 µM (inactive) | > 100 µM (inactive)
10 | O=C(O)c1c[nH]c2c(=O)[nH]cnc12 | > 100 µM (inactive) | > 100 µM (inactive) | > 100 µM (inactive) | > 100 µM (inactive) | > 100 | > 100 µM (inactive) | > 100 µM (inactive) | > 100 µM (inactive) | > 100 µM (inactive) | > 100 µM (inactive) | > 100 µM (inactive) | > 100 µM (inactive) | > 100 µM (inactive) | > 100 µM (inactive) | > 100 µM (inactive) |  | > 100 µM (inactive) | > 100 µM (inactive) |  | > 100 µM (inactive)
11 | COc1ccc([C@@H]2ON(C)[C@H]3CN(C)C(=O)[C@@H]23)cc1 | > 100 µM (inactive) | > 100 µM (inactive) |  | > 100 µM (inactive) | > 100 | > 100 µM (inactive) | > 100 µM (inactive) | > 100 µM (inactive) |  | > 100 µM (inactive) | > 100 µM (inactive) | > 100 µM (inactive) | > 100 µM (inactive) | > 100 µM (inactive) |  |  | > 100 µM (inactive) | > 100 µM (inactive) | > 100 µM (inactive) | > 100 µM (inactive)
